Measurements reported in patent publication US6762198B2, “Dihetero-substituted metalloprotease inhibitors” (The Procter & Gamble Company, priority 1999, dated 2004).

What was measured:
[1] = system: human subject suffering from rheumatoid arthritis; assay: Example A: oral tablets in a human subject with rheumatoid arthritis; format: in vivo; settings: human 60 kg, three tablets (15 mg compound each) per day orally for 2 years
Protocol: A tablet composition for oral administration, according to the present invention, is made comprising:
A human subject weighing 60 kg (132 lbs), suffering from rheumatoid arthritis, is treated by a method of this invention. Specifically, for 2 years, a regimen of three tablets per day is administered orally to said subject.

[2] = system: human subject suffering from osteoarthritis; assay: Example B: oral capsule in a human subject with osteoarthritis; format: in vivo; settings: human 90 kg, capsule containing 70 mg daily for 5 years
Protocol: A capsule for oral administration, according to the present invention, is made comprising:
A human subject weighing 90 kg (198 lbs.), suffering from osteoarthritis, is treated by a method of this invention. Specifically, for 5 years, a capsule containing 70 mg of the compound of Example 3 is administered daily to said subject.

[3] = system: patient having deep corneal abrasion; assay: Example C: saline-based eye drop in a patient with deep corneal abrasion; format: in vivo, human; settings: 5% w/w saline-based drop to each eye twice a day
From the text: A saline-based composition for local administration, according to the present invention, is made comprising:
A patient having deep corneal abrasion applies the drop to each eye twice a day.

[4] = system: patient suffering from chemical bums; assay: Example D: topical composition in a patient with chemical burns; format: in vivo, human; settings: 0.20% w/v topical composition at each dressing change (b.i.d.)
From the text: A topical composition for local administration, according to the present invention, is made comprising:
A patient suffering from chemical bums applies the composition at each dressing change (b.i.d.).

[5] = system: human subject with a premetastatic tumor; assay: Example G: parenteral suspension in a human subject with a premetastatic tumor; format: in vivo; settings: about 2.0 mL of 100 mg/mL suspension injected beside the tumor twice daily, after 30 days
Protocol: A composition for parenteral administration is made comprising:
The above ingredients are mixed, forming a suspension. Approximately 2.0 mL of the suspension is administered, via injection, to a human subject with a premetastatic tumor. The injection site juxtaposes the tumor. This dosage is repeated twice daily, for approximately 30 days.

asthma sufferer = assay: Example E: inhalation aerosol in an asthma sufferer; format: in vivo, human; settings: 0.01 mL of 5.0% w/v inhalation aerosol sprayed into the mouth while inhaling

Compound: COc1ccc(-c2ccc(S(=O)(=O)NC(CC(O)CSc3nccs3)C(=O)O)cc2)cc1 (stereo not drawn) [Example 1, 2-[(4′-Methoxy[1,1′-biphenyl]-4-yl)sulfonyl]amino-4-hydroxy-5-[(2-thiazolyl)thio]-pentanoic Acid]
- inflammation, mobility and pain at the end of the treatment period [1]: reduced inflammation, and improved mobility without concomitant pain

Compound: O=C(O)C(CC(O)CSc1nccs1)NS(=O)(=O)c1ccc(-c2ccc(Oc3ccccc3)cc2)cc1 (stereo not drawn) [Example 3, 2-[(4′-Phenoxy[1,1′-biphenyl]-4-yl)sulfonyl]amino-4-hydroxy-5-[(2-thiazolyl)thio]pentanoic Acid]
- advancement of erosion/fibrillation of the articular cartilage (x-ray, arthroscopy and/or MRI) [2]: no further advancement of erosion/fibrillation of the articular cartilage

Compound: Cc1ccc(C#Cc2ccc(S(=O)(=O)NC(CC(O)CSc3nccs3)C(=O)O)cc2)cc1 (stereo not drawn) [Example 10, 2-[[4-[(4-Methylphenyl)ethynyl]phenyl]sulfonyl]amino-4-hydroxy-5-[(2-thiazolyl)thio]-pentanoic Acid]
- corneal healing [3]: Healing is speeded, with no visual sequelae

Compound: COc1ccc(-c2ccc(S(=O)(=O)NC(CC(O)CNc3ccccc3)C(=O)O)cc2)cc1 (stereo not drawn) [Example 19, 2-[(4′-Methoxy[1,1′-biphenyl]-4-yl)sulfonyl]amino-4-hydroxy-5-(phenylamino)-pentanoic Acid]
- scarring [4]: Scarring is substantially diminished

Compound: COc1ccc(-c2ccc(S(=O)(=O)NC(CC(O)CSc3ncc[nH]3)C(=O)O)cc2)cc1 (stereo not drawn) [Example 22, 2-[(4′-Methoxy[1,1′-biphenyl]-4-yl)sulfonyl]amino-4-hydroxy-5[(2-imidazolyl)thio]-pentanoic Acid]
- symptoms of the disease [5]: symptoms of the disease subside

Compound: COc1ccc(-c2ccc(S(=O)(=O)NC(CC(O)CSc3n[nH]c(-c4ccccc4)n3)C(=O)O)cc2)cc1 (stereo not drawn) [Example 42, 2-[(4′-Methoxy[1,1′-biphenyl]-4-yl)sulfonyl]amino-4-hydroxy-5-[(5-phenyl-1H-1,2,4-triazol-3-yl)thio]-pentanoic Acid]
- asthma symptoms (asthma sufferer): Asthma symptoms are diminished
